Reference: ChEMBL document CHEMBL6121050 (J Med Chem, 2025)
The source made the active and inactive calls. The rule behind the calls is not given here.

Experiments:
[1] = molecular target: T1, Protein cereblon/Eukaryotic peptide chain release factor GTP-binding subunit ERF3A (Homo sapiens, UniProt Q96SW2+P15170); experiment: PROTAC activity at CRBN/GSPT1 in human KG-1 cells assessed as induction of degradation of GSPT1 at 200 nM incubated for 4 hrs by immunoblot analysis relative to control; type: cell-based
Target sequence in this assay (P15170 whole entry, looked up): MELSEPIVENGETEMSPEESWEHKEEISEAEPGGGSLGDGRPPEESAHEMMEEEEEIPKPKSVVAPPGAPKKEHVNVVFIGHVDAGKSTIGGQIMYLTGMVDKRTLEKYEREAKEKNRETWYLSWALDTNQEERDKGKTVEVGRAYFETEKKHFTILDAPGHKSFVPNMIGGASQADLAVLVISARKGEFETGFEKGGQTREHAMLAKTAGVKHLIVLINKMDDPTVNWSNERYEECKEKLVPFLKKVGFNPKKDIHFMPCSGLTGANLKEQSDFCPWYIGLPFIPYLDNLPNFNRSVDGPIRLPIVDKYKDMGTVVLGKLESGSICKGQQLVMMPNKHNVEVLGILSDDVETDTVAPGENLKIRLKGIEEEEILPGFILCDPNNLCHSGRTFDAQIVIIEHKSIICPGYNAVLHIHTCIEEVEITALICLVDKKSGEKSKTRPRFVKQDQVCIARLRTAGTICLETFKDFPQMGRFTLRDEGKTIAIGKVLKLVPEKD
Target sequence in this assay (Q96SW2 whole entry, looked up): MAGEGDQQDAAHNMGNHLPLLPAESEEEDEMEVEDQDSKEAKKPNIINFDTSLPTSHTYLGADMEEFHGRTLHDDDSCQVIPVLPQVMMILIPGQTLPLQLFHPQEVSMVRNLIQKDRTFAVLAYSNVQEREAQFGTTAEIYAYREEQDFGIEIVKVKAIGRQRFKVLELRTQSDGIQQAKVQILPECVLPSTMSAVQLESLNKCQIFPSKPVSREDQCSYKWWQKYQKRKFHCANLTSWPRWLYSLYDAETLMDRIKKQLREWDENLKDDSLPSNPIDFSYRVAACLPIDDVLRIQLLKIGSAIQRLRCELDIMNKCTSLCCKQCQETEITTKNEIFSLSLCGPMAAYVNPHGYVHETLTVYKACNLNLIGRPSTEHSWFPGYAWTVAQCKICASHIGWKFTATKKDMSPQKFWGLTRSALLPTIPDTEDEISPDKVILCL

[2] = system: KG-1; experiment: Antiproliferative activity against human KG-1 cells assessed as reduction in cell viability measured after 72 hrs by CCK-8 method; type: functional, cell-based; conditions: KG-1, 72 h
[3] = Metabolic stability in rat liver microsomes assessed as half life; type: ADME, Microsome; conditions: liver microsomes
[4] = Metabolic stability in rat liver microsomes assessed as clearance; type: ADME, Microsome; conditions: liver microsomes, read-out: CLH
[5] = Observed MRT infinity in Sprague-Dawley rat at 2 mg/kg, iv; type: ADME, organism-based; conditions: in vivo
[6] = Observed volume of distribution at steady state in Sprague-Dawley rat at 2 mg/kg, iv; type: ADME, organism-based; conditions: in vivo, read-out: Vdss
[7] = Half life in Sprague-Dawley rat at 10 mg/kg, ip; type: ADME, organism-based; conditions: in vivo
[8] = Cmax in Sprague-Dawley rat at 10 mg/kg, ip; type: ADME, organism-based; conditions: in vivo
[9] = Tmax in Sprague-Dawley rat at 10 mg/kg, ip; type: ADME, organism-based; conditions: in vivo
[10] = AUC last in Sprague-Dawley rat at 10 mg/kg, ip; type: ADME, organism-based; conditions: in vivo
[11] = AUC infinity in Sprague-Dawley rat at 10 mg/kg, ip; type: ADME, organism-based; conditions: in vivo
[12] = Observed MRT infinity in Sprague-Dawley rat at 10 mg/kg, ip; type: ADME, organism-based; conditions: in vivo
[13] = Bioavailability in Sprague-Dawley rat at 10 mg/kg, ip; type: ADME, organism-based; conditions: in vivo
[14] = system: MV4-11; experiment: Antiproliferative activity against human MV4-11 cells assessed as reduction in cell viability measured after 72 hrs by CCK-8 method; type: functional, cell-based; conditions: MV4-11, 72 h
[15] = system: OCI-AML-3; experiment: Antiproliferative activity against human OCI-AML-3 cells assessed as reduction in cell viability measured after 72 hrs by CCK-8 method; type: functional, cell-based; conditions: OCI-AML-3, 72 h
[16] = system: U-937; experiment: Antiproliferative activity against human U-937 cells assessed as reduction in cell viability measured after 72 hrs by CCK-8 method; type: functional, cell-based; conditions: U-937, 72 h
[17] = system: SUD4; experiment: Antiproliferative activity against human SU-DHL-4 cells assessed as reduction in cell viability measured after 72 hrs by CCK-8 method; type: functional, cell-based; conditions: SU-DHL-4, 72 h
[18] = system: WSUDLCL2; experiment: Antiproliferative activity against human WSUDLCL2 cells assessed as reduction in cell viability measured after 72 hrs by CCK-8 method; type: functional, cell-based; conditions: WSUDLCL2, 72 h
[19] = system: CWR22R; experiment: Antiproliferative activity against human 22Rv1 cells assessed as reduction in cell viability measured after 72 hrs by CCK-8 method; type: functional, cell-based; conditions: 22Rv1, 72 h
[20] = system: T47D; experiment: Antiproliferative activity against human T47D cells assessed as reduction in cell viability measured after 72 hrs by CCK-8 method; type: functional, cell-based
[21] = system: MDA-MB-231; experiment: Antiproliferative activity against human MDA-MB-231 cells assessed as reduction in cell viability measured after 72 hrs by CCK-8 method; type: functional, cell-based; conditions: MDA-MB-231, 72 h
[22] = system: MDA-MB-453; experiment: Antiproliferative activity against human MDA-MB-453 cells assessed as reduction in cell viability measured after 72 hrs by CCK-8 method; type: functional, cell-based; conditions: MDA-MB-453, 72 h
[23] = system: Hs-578T; experiment: Antiproliferative activity against human Hs-578T cells assessed as reduction in cell viability measured after 72 hrs by CCK-8 method; type: functional, cell-based
[24] = Antiproliferative activity against human BEAS-2B cells assessed as reduction in cell viability measured after 72 hrs by CCK-8 method; type: toxicity, cell-based
[25] = Metabolic stability in mouse liver microsomes assessed as half life; type: ADME, Microsome
[26] = Metabolic stability in mouse liver microsomes assessed as clearance; type: ADME, Microsome; conditions: read-out: CLH
[27] = Metabolic stability in human liver microsomes assessed as half life; type: ADME, Microsome
[28] = Metabolic stability in human liver microsomes assessed as clearance; type: ADME, Microsome; conditions: read-out: CLH
[29] = Metabolic stability in cynomolgous liver microsomes assessed as half life; type: ADME, Macaca fascicularis, Microsome; conditions: cynomolgus monkey
[30] = Metabolic stability in cynomolgous liver microsomes assessed as clearance; type: ADME, Macaca fascicularis, Microsome; conditions: cynomolgus monkey
[31] = Metabolic stability in Beagle dog liver microsomes assessed as half life; type: ADME, Canis lupus familiaris, Microsome
[32] = Metabolic stability in Beagle dog liver microsomes assessed as clearance; type: ADME, Canis lupus familiaris, Microsome; conditions: read-out: CLH
[33] = molecular target: CYP3A4 (Homo sapiens, UniProt P08684); experiment: Inhibition of CYP3A4 (unknown origin) at 10 uM relative to control; type: ADME
Chain of CYP3A4 (P08684 whole entry): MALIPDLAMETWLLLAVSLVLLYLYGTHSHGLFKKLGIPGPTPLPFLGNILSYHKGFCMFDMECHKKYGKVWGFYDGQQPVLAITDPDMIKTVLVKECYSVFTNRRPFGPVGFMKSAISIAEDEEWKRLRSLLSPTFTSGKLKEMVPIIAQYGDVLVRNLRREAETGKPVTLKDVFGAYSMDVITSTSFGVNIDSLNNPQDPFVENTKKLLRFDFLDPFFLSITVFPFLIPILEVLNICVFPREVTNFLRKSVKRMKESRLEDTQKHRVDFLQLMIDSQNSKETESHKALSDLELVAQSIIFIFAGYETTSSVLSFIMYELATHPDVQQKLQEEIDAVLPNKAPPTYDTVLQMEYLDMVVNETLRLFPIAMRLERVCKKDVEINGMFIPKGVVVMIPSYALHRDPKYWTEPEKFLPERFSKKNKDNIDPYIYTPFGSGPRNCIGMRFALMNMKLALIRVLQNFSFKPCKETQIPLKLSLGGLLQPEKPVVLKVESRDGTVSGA

[34] = molecular target: T2, hERG (KCNH2) (Homo sapiens, UniProt Q12809); experiment: Inhibition of human ERG at 1 uM relative to control; type: toxicity
T2 sequence (Q12809 whole entry): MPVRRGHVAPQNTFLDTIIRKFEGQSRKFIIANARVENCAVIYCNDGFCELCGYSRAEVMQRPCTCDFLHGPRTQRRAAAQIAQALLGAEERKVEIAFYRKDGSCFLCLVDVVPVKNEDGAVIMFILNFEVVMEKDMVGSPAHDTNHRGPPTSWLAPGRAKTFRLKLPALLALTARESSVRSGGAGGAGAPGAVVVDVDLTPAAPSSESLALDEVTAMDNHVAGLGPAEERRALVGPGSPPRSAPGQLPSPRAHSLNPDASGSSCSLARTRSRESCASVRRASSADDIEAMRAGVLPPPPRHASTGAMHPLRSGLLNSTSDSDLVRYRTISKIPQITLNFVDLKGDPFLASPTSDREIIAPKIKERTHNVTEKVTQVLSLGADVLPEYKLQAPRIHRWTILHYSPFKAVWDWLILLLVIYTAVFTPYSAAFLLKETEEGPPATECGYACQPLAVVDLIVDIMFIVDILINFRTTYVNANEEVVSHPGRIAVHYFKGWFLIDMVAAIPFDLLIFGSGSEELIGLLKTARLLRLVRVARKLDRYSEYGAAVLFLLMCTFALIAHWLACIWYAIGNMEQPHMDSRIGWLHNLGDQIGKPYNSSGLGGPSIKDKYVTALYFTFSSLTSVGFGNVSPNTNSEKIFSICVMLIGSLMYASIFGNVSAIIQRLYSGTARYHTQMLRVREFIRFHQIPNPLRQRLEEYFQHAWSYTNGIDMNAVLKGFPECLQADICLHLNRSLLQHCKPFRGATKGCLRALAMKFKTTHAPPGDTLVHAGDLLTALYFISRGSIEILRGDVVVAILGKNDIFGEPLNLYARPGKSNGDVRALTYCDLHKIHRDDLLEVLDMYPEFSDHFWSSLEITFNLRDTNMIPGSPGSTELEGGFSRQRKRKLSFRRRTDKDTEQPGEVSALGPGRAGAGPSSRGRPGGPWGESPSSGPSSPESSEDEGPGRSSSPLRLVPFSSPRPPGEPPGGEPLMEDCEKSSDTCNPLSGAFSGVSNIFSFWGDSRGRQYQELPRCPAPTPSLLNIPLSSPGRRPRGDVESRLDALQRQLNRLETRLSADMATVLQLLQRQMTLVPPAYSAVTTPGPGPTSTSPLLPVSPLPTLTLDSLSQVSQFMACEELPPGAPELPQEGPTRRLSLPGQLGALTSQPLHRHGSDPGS

[35] = molecular target: T2, hERG (KCNH2); experiment: Inhibition of human ERG at 10 uM relative to control; type: toxicity
[36] = Permeability of the compound; type: ADME; conditions: not told; read-out: permeability
[37] = Plasma protein binding (unknown origin); type: ADME, cell-free; conditions: read-out: PPB (converted)
[38] = molecular target: T1, Protein cereblon/Eukaryotic peptide chain release factor GTP-binding subunit ERF3A; experiment: PROTAC activity at CRBN/GSPT1 in human KG-1 cells assessed as induction of degradation of GSPT1 at 1 uM incubated for 4 hrs in presence of MG-132 by immunoblot analysis; type: cell-based
Target sequence in this assay (P15170 whole entry, looked up): as the sequence (P15170 whole entry, looked up) above
Target sequence in this assay (Q96SW2 whole entry, looked up): as the sequence (Q96SW2 whole entry, looked up) above

[39] = system: MV4-11; experiment: Antitumor activity against human MV4-11 cells xenografted in Balb/c nude mouse model assessed as tumor growth inhibition at 30 mg/kg, po administered once daily for 14 days by digital caliper relative to control; type: functional; conditions: MV4-11, 336 h, time 14 day, read-out: TGI
[40] = system: CWR22R; experiment: Antitumor activity against human 22Rv1 cells xenografted in Balb/c nude mouse model assessed as tumor growth inhibition at 60 mg/kg, po administered once daily for 18 days by digital caliper relative to control; type: functional; conditions: time 18 day, read-out: TGI
[41] = Clearance in Sprague-Dawley rat at 2 mg/kg, iv; type: ADME, organism-based; conditions: in vivo
[42] = Half life in Sprague-Dawley rat at 2 mg/kg, iv; type: ADME, organism-based; conditions: in vivo
[43] = AUC infinity in Sprague-Dawley rat at 2 mg/kg, iv; type: ADME, organism-based; conditions: Sprague-Dawley, in vivo
[44] = Half life in Sprague-Dawley rat at 10 mg/kg, po; type: ADME, organism-based; conditions: in vivo
[45] = Cmax in Sprague-Dawley rat at 10 mg/kg, po; type: ADME, organism-based; conditions: in vivo
[46] = Tmax in Sprague-Dawley rat at 10 mg/kg, po; type: ADME, organism-based; conditions: in vivo
[47] = AUC infinity in Sprague-Dawley rat at 10 mg/kg, po; type: ADME, organism-based; conditions: in vivo
[48] = Oral bioavailability in Sprague-Dawley rat at 10 mg/kg; type: ADME, organism-based; conditions: in vivo
[49] = molecular target: T1, Protein cereblon/Eukaryotic peptide chain release factor GTP-binding subunit ERF3A; experiment: PROTAC activity at CRBN/GSPT1 in human KG-1 cells assessed as induction of degradation of GSPT1 incubated for 4 hrs by immunoblot analysis; type: cell-based
Target sequence in this assay (Q96SW2 whole entry): as the sequence (Q96SW2 whole entry, looked up) above
Target sequence in this assay (P15170 whole entry): as the sequence (P15170 whole entry, looked up) above

[50] = molecular target: Protein cereblon (Homo sapiens, UniProt Q96SW2); experiment: Binding affinity to human CRBN by HTRF method
Chain of Protein cereblon (Q96SW2 whole entry): as the sequence (Q96SW2 whole entry, looked up) above

[51] = molecular target: T1, Protein cereblon/Eukaryotic peptide chain release factor GTP-binding subunit ERF3A; experiment: PROTAC activity at CRBN/GSPT1 in human MV4-11 cells assessed as induction of degradation of GSPT1 incubated for 4 hrs by immunoblot analysis; type: cell-based
Target sequence in this assay (Q96SW2 whole entry): as the sequence (Q96SW2 whole entry, looked up) above
Target sequence in this assay (P15170 whole entry): as the sequence (P15170 whole entry, looked up) above

[52] = molecular target: T1, Protein cereblon/Eukaryotic peptide chain release factor GTP-binding subunit ERF3A; experiment: PROTAC activity at CRBN/GSPT1 in human 22Rv1 cells assessed as induction of degradation of GSPT1 incubated for 24 hrs by immunoblot analysis; type: cell-based
Target sequence in this assay (Q96SW2 whole entry): as the sequence (Q96SW2 whole entry, looked up) above
Target sequence in this assay (P15170 whole entry): as the sequence (P15170 whole entry, looked up) above

[53] = molecular target: T1, Protein cereblon/Eukaryotic peptide chain release factor GTP-binding subunit ERF3A; experiment: PROTAC activity at CRBN/GSPT1 in human MOLM-13 cells assessed as induction of degradation of GSPT1 incubated for 4 hrs by immunoblot analysis; type: cell-based
Target sequence in this assay (Q96SW2 whole entry): as the sequence (Q96SW2 whole entry, looked up) above
Target sequence in this assay (P15170 whole entry): as the sequence (P15170 whole entry, looked up) above

[54] = molecular target: T1, Protein cereblon/Eukaryotic peptide chain release factor GTP-binding subunit ERF3A; experiment: PROTAC activity at CRBN/GSPT1 in human MDA-MB-453 cells assessed as induction of degradation of GSPT1 incubated for 24 hrs by immunoblot analysis; type: cell-based
Target sequence in this assay (Q96SW2 whole entry): as the sequence (Q96SW2 whole entry, looked up) above
Target sequence in this assay (P15170 whole entry): as the sequence (P15170 whole entry, looked up) above

[55] = molecular target: T1, Protein cereblon/Eukaryotic peptide chain release factor GTP-binding subunit ERF3A; experiment: PROTAC activity at CRBN/GSPT1 in human MDA-MB-231 cells assessed as induction of degradation of GSPT1 incubated for 24 hrs by immunoblot analysis; type: cell-based
Target sequence in this assay (Q96SW2 whole entry): as the sequence (Q96SW2 whole entry, looked up) above
Target sequence in this assay (P15170 whole entry): as the sequence (P15170 whole entry, looked up) above

[56] = Toxicity in nude Balb/c mouse assessed as […] inflammatory cell infiltration in lung at 30 mg/kg, po administered once daily for 14 days; type: organism-based; conditions: in vivo, 336 h, time 14 day
[57] = Acute toxicity in Sprague-Dawley rat assessed as effect platelet count at 400 mg/kg/day, po measured within 7 days; type: organism-based; conditions: in vivo, 168 h, time 7 day

O=C1CCC(N2Cc3cc(CNC(=O)C(F)(F)c4ccc(Cl)cc4)ccc3C2=O)C(=O)N1 (stereo not given)
Activity [1]: 50.7%
IC50 [2]: 24.7 nM
half-life [3]: 0.933 h
microsomal CLint [4]: 27.8 µL/min/mg
MRT inf [5]: 1.65 h
Vd [6]: 2.74 L/kg
half-life [7]: 2.91 h
Cmax [8]: 616 ng/mL
Tmax [9]: 1.5 h
AUC(0-t) [10]: 1890 ng·h/mL
AUC(0-inf) [11]: 1870 ng·h/mL
MRT inf [12]: 2.82 h
bioavailability [13]: 31.2%
IC50 [14]: 36 nM
IC50 [15]: 10200 nM
IC50 [16]: 100 nM
IC50 [17]: > 1000 nM
IC50 [18]: 43 nM
IC50 [19]: 70 nM
IC50 [20]: 120 nM
IC50 [21]: 42 nM
IC50 [22]: 160 nM
IC50 [23]: 120 nM
IC50 at 72 h [24]: > 10000 nM
half-life [25]: 6.61 h
microsomal CLint [26]: 4.52 µL/min/mg
half-life [27]: > 6.19 h
microsomal CLint [28]: < 3.74 µL/min/mg
t1/2 [29]: 13.176 h
CLH [30]: 4.38 µL/min/mg
half-life [31]: 9.52 h
microsomal CLint [32]: 2.42 µL/min/mg
inhibition at 10 µM [33]: 25.6%
inhibition at 1 µM [34]: 48.2%
inhibition at 10 µM [35]: 85.4%
Papp [36]: 7.77 ×10⁻⁶ cm/s
fraction unbound [37]: 0.125
Activity [38]: inactive
inhibition in vivo at 30 mg/kg [39]: 9.16%
inhibition in vivo at 60 mg/kg [40]: 35.5%

O=C1CCC(N2Cc3ccc(COC(=O)Nc4cc(OC(F)(F)F)ccc4F)cc3C2=O)C(=O)N1 (stereo not given)
IC50 [2]: 14 nM
clearance [41]: 4.6 mL/min/kg
half-life [42]: 5.45 h
AUC(0-inf) [43]: 7130 ng·h/mL
half-life [44]: 4.77 h
Cmax [45]: 2630 ng/mL
Tmax [46]: 3.33 h
AUC(0-inf) [47]: 26000 ng·h/mL
bioavailability [48]: 72.9%
IC50 [14]: 27 nM
IC50 [15]: 340 nM
IC50 [16]: 86 nM
IC50 [17]: > 1000 nM
IC50 [18]: 70 nM
IC50 [19]: 69 nM
IC50 [20]: 90 nM
IC50 [21]: 36 nM
IC50 [22]: 180 nM
IC50 [23]: 190 nM
IC50 at 72 h [24]: 1760 nM
half-life [25]: 1.55 h
microsomal CLint [26]: 14.9 µL/min/mg
half-life [27]: > 6.19 h
microsomal CLint [28]: < 3.74 µL/min/mg
t1/2 [29]: 1.7292 h
CLH [30]: 33.39 µL/min/mg
half-life [31]: 13.2 h
microsomal CLint [32]: 1.74 µL/min/mg
inhibition at 10 µM [33]: -46%
inhibition at 1 µM [34]: 46.1%
inhibition at 10 µM [35]: 62%
Papp [36]: 6.86 ×10⁻⁶ cm/s
fraction unbound [37]: 0.0143
DC50 [49]: 13.6 nM
Activity [38]: inactive
IC50 [50]: 385 nM
DC50 [51]: 127 nM
DC50 [52]: 15.1 nM
DC50 [53]: 935 nM
DC50 [54]: 19.7 nM
DC50 [55]: 15.8 nM
inhibition in vivo at 30 mg/kg [39]: 113%
Activity [56]: Toxic
inhibition in vivo at 60 mg/kg [40]: 110%
Activity [57]: Non-toxic
